One compound from patent US20240408052A1, “COMPOSITION CONTAINING SESAMIN AND ERGOTHIONEINE OR SALT THEREOF” (SUNTORY HOLDINGS LIMITED, priority 2021, published 2024) can be followed below.

This test concerns p16-INK4A (p16). As to the kind of experiment: p16 expression in H2O2-treated TIG-3 cells (cellular senescence marker, real-time PCR). It is filed as cell-based, human. Here is the method:
TIG-3 cells (human lung fibroblasts) were used to measure the expression level of p16-INK4A (p16) in the cells. Eagle's minimum essential medium supplemented with 10% fetal bovine serum was used in each of Examples 1 and 2, Reference Example 1, and Comparative Examples 1 to 4. A H2O2 (200 μM)-supplemented medium used for H2O2 treatment was prepared by adding H2O2 to the medium described above. The H2O2 (200 μM)-supplemented medium is free of sesamin-class compounds and ergothioneine.
In Examples 1 and 2, in order to investigate the action on cellular senescence, the cells were cultured in a medium containing sesamin-class compounds and ergothioneine and were then treated with the H2O2-supplemented medium. […]
Specifically, TIG-3 cells at 4.0×10^4 cells/well were seeded onto 6-well plates and cultured at 37° C. with CO2 (5%) for 24 hours in a medium supplemented with a sesamin-episesamin mixture (SE) and ergothioneine at the respective concentrations shown in the following Table 1. […] The resulting pellets were dissolved in 20 μL DNase RNase free water (Invitrogen) and measured by NanoDrop. […] A master mix (15 μL) (Takara, TB Green® Premix Ex Taq™ II (Tli RNaseH Plus)) was mixed with the cDNA sample (5 μL), and p16 was measured with a Real-Time PCR system (Applied Biosystems, StepOnePlus-01). An average p16 expression level (n=6) was determined. […]

With `C[N+](C)(C)[C@@H](Cc1c[nH]c(=S)[nH]1)C(=O)[O-]` [ergothioneine, L-ergothioneine], the “p16 expression level compared to the H2O2-treated group (Comparative Example 1)” value (FIG. 1, ergothioneine 0.1 μM, 200 μM H2O2 two hours, then six days culture, n=6) is listed as “no significant change”. For the same compound, the “p16 expression compared to the H2O2-treated group (Comparative Example 1)” value (FIG. 2, ergothioneine 10 μM, 200 μM H2O2, p<0.05) is “significantly suppressed”.
